According to patent US20240336551A1, “BIODEGRADEBLE MATERIAL MANUFACTURING METHOD AND SYSTEM” (NOROO IC Co., Ltd., priority 2023, published 2024):

Columns and labels:
[1] = Degree of biodegradability: cumulative amount of CO2 generated over time (FIG. 4)
Excerpt: In describing the present invention, “biodegradable” refers to a definition based on ASTM […]-15 (Standard Test Method for Determination of Aerobic Biodegradation of Plastic Materials Under Controlled Composting Conditions, Incorporating Thermophilic Temperatures). […] This is a much faster biodegradation rate than that of poly (lactic acid) (PLA), which is a biodegradable polymer.

microorganisms = experiment: Sterilization experiment, overall conclusion; type: cell-based; details: conclusion drawn from Table 1
Method: (§1) Meanwhile, a sterilization experiment was conducted on ethyl 3-HP, a biodegradable material manufactured by the system of the present invention, and the data thereof is shown in Table 1 below. The sterilization experiment was conducted by a test method according to the KCL-FIR-1002:2021 standard.
From the above data, it can be confirmed that […].

[2] = tested on: Staphylococcus aureus ATCC 6538; experiment: Sterilization experiment (antimicrobial test, KCL-FIR-1002:2021): Staphylococcus aureus; type: cell-based
Method: as §1

[3] = tested on: Streptococcus mutans ATCC 25175; experiment: Sterilization experiment (antimicrobial test, KCL-FIR-1002:2021): Streptococcus mutans; type: cell-based
Method: as §1

[4] = tested on: Escherichia coli ATCC 25922; experiment: Sterilization experiment (antimicrobial test, KCL-FIR-1002:2021): Escherichia coli; type: cell-based
Method: as §1

[5] = tested on: Streptococcus (Bacillus cereus ATCC 11778); experiment: Sterilization experiment (antimicrobial test, KCL-FIR-1002:2021): Bacillus cereus; type: cell-based; details: initial concentration 3.0*10^4 CFU/ml, BLANK 3.1*10^5
Method: as §1

[6] = tested on: (Bacillus cereus ATCC 11778); experiment: as above; type: cell-based; details: after 24 hours, versus BLANK
Method: as §1

[7] = tested on: MRSA bacteria (Staphylococcus aureus subsp. aureus); experiment: Sterilization experiment (antimicrobial test, KCL-FIR-1002:2021): MRSA bacteria; type: cell-based
Method: as §1

## O=C(O)CCO [3-HP, 3-hydroxy propionate]
[1]
  Biodegradability compared to PLA: excellent biodegradability compared to PLA
microorganisms
  Bacteriostatic / sterilizing effect: only the bacteriostatic effect and no sterilizing effect

## CCOC(=O)CCO [Ethyl 3-HP, ethyl 3-hydroxypropionate]
[1]
  Biodegradability compared to PLA: excellent biodegradability compared to PLA
[2]; after 24 hours, versus BLANK
  Bacteriostatic reduction rate: 8.1%
[2]; initial concentration 3.4*10^4 CFU/ml, BLANK 3.7*10^5
  Concentration after 24 hours: 3.4*10^5 CFU/ml
[3]; after 24 hours, versus BLANK
  Bacteriostatic reduction rate: 48.1%
[3]; initial concentration 2.6*10^4 CFU/ml, BLANK 2.7*10^5
  Concentration after 24 hours: 1.4*10^5 CFU/ml
[4]; after 24 hours, versus BLANK
  Bacteriostatic reduction rate: 20%
[4]; initial concentration 1.3*10^4 CFU/ml, BLANK 1.5*10^5
  Concentration after 24 hours: 1.2*10^5 CFU/ml
[5]
  Concentration after 24 hours: 1.7*10^5 CFU/ml
[6]
  Bacteriostatic reduction rate: 45.1%
[7]; after 24 hours, versus BLANK
  Bacteriostatic reduction rate: 61.5%
[7]; initial concentration 2.5*10^4 CFU/ml, BLANK 2.6*10^5
  Concentration after 24 hours: 1.0*10^5 CFU/ml
